We go through six compounds from ChEMBL document CHEMBL1155817, “Hanultarin, a cytotoxic lignan as an inhibitor of actin cytoskeleton polymerization from the seeds of Trichosanthes kirilowii” (Bioorg Med Chem, 2008).

In brackets after ≈: the same amount, converted by molar mass. Activity calls are given as the source filed them. The rule behind the calls is not given here. Where only a bound is given, the exact number is not on record here.

The subject of one assay is A549. The assay is described as follows: Cytotoxicity against human A549 cells after 48 hrs by SRB assay. It counts as functional, cell-based. The conditions noted are these: A549, 48 h.
The next assay concerns SK-MEL-2. Description: Cytotoxicity against human SK-MEL-2 cells after 48 hrs by SRB assay. It counts as functional, cell-based. The conditions noted are these: SK-MEL-2, 48 h.
The subject of assay [1] is HaCaT. Description: Inhibition of actin polymerization in human HaCaT cells assessed as aggregate-like structure at 40 ug/mL by immunofluorescence technique. It counts as cell-based.
Assay [2] in a line: Cytotoxicity against mouse B16F1 cells after 48 hrs by SRB assay. Particulars: B16-F1, 48 h. The class given is functional, cell-based.
The test system of assay [3] is HaCaT. Description: Inhibition of actin polymerization in human HaCaT cells assessed as aggregate-like structure at 12 ug/mL by immunofluorescence technique. It counts as cell-based.
The subject of assay [4] is HaCaT. The assay is described as follows: Inhibition of actin polymerization in human HaCaT cells assessed as aggregate-like structure at 3.5 ug/mL by immunofluorescence technique. It counts as cell-based.
Assay [5] has as its system HaCaT. Description: Inhibition of actin polymerization in human HaCaT cells assessed as aggregate-like structure by immunofluorescence technique. It counts as cell-based.
For assay [6], the system named is HaCaT. Description: Inhibition of actin polymerization in human HaCaT cells assessed as aggregate-like structure at 1 ug/mL by immunofluorescence technique. It counts as cell-based.

On to `COc1cc(C[C@@H](CO)[C@H](CO)Cc2ccc(O)c(OC)c2)ccc1O` [(+)-SECOISOLARICIRESINOL], for which the IC50 (with A549; in the assay on SK-MEL-2; in assay [2]) was above 40 µg/mL in each case. Also, in the assay on HaCaT [1], the result was inactive.

Take `COc1cc(/C=C/C(=O)OC[C@H](Cc2ccc(O)c(OC)c2)[C@H](COC(=O)/C=C/c2ccc(O)c(OC)c2)Cc2ccc(O)c(OC)c2)ccc1O`: the IC50 with A549 was 12 µg/mL (≈ 16.8 µM); in the assay on SK-MEL-2, 10 µg/mL (≈ 14 µM); in assay [2], 12 µg/mL (≈ 16.8 µM). Moreover, the result in the assay with HaCaT [3] was Active.

In the case of `COc1cc(/C=C/C(=O)OC[C@H](Cc2ccc(O)c(OC)c2)[C@H](CO)Cc2ccc(O)c(OC)c2)ccc1O` [HANULTARIN], the figures for the IC50 (in the assay with A549; in the assay with SK-MEL-2; in assay [2]) were 3 µg/mL (≈ 5.57 µM), 3 µg/mL (≈ 5.57 µM) and 13 µg/mL (≈ 24.1 µM), respectively. Further, the result in the assay with HaCaT [4] was Active. Further, the Activity entry in the assay on HaCaT [5] is “Dose-dependent effect”.

Take `COc1cc([C@H]2OC(=O)[C@H]3[C@@H]2CO[C@@H]3c2ccc(O)c(OC)c2)ccc1O`: the figures for the IC50 (with A549; with SK-MEL-2; in assay [2]) were above 40 µg/mL, 20 µg/mL (≈ 53.7 µM) and 13 µg/mL (≈ 34.9 µM), respectively. For the same compound, the result in the assay with HaCaT [1] was inactive.

Take `C=C1[C@@H](C)[C@H]2[C@H](Cc3ccccc3)NC(=O)[C@]23[C@H](OC(C)=O)/C=C/[C@@](C)(O)C(=O)[C@@H](C)C/C=C/[C@H]3[C@@H]1O`: in the assay with HaCaT [6], the result was Active.

For the compound `COc1cc([C@@H]2OC[C@@H]3[C@H]2CO[C@H]3c2ccc(O)c(OC)c2)ccc1O` [(+)-PINORESINOL], the IC50 (in the assay with A549; with SK-MEL-2; in assay [2]) was above 40 µg/mL in each case. Besides, the outcome with HaCaT [1] was inactive.
